The results in this text go back to ChEMBL document CHEMBL1201862, “PubChem BioAssay data set” (2004).

Test [1] addresses T1, Alkaline phosphatase, tissue-nonspecific isozyme (Homo sapiens, UniProt P05186).
T1 sequence (P05186 whole entry): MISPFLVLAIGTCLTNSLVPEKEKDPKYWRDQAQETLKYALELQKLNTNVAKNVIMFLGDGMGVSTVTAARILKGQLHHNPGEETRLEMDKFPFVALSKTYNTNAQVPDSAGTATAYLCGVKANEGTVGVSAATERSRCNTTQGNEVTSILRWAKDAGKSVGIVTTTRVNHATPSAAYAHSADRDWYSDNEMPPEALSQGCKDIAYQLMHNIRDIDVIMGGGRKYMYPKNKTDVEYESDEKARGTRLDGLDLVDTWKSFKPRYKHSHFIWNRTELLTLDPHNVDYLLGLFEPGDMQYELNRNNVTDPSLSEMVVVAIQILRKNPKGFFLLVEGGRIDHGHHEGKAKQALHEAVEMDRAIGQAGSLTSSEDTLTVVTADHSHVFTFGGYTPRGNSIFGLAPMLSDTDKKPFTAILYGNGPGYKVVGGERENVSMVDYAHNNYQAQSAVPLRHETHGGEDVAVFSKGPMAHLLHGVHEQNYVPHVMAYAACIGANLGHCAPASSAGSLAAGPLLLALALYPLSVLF
Nature of the test: human TNAP enzyme inhibitors, SAR follow-up, biochemical, luminescent, dose response (AID 1056).

Test [2] addresses Glyceraldehyde-3-phosphate dehydrogenase (Homo sapiens, UniProt P04406).
The target of test [3] is T2, Short transient receptor potential channel 4 (Mus musculus, UniProt Q9QUQ5).
T2 sequence (Q9QUQ5 whole entry): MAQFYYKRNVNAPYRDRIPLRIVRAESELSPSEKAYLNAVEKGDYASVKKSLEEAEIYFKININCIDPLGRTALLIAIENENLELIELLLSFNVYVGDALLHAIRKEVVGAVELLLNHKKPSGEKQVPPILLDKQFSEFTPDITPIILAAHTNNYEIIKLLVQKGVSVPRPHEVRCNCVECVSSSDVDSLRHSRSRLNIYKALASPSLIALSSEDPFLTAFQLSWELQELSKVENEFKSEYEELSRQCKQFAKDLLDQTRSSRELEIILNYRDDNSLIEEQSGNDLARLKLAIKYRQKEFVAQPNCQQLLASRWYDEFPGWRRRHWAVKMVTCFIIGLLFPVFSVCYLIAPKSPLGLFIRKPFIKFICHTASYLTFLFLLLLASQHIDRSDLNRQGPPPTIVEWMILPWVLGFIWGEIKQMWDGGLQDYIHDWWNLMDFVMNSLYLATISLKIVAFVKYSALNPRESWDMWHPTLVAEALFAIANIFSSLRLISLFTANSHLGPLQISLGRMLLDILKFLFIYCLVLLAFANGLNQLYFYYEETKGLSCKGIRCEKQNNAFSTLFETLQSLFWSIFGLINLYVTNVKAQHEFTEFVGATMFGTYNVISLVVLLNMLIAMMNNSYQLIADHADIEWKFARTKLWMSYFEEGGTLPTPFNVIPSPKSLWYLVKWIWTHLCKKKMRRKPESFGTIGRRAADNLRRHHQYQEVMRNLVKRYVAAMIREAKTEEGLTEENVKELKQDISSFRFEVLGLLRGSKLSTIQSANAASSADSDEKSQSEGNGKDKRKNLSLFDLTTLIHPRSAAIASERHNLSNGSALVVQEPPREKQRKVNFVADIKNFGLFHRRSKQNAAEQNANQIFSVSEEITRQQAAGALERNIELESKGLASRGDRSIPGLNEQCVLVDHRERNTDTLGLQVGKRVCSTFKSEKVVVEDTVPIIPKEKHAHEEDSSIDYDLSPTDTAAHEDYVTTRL
The test is described as follows: mouse TRPC4 channel activators, dose response, cell-based, HEK293 TRPC4/mu-opioid, Fluo-4 calcium (AID 434937). Type of test: functional.

The target of test [4] is T2, Short transient receptor potential channel 4. The test is described as follows: mouse TRPC4 channel inhibitors, dose response, cell-based, HEK293 TRPC4/mu-opioid, Fluo-4 calcium (AID 434942).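 Also: potency of inhibitors blocking the TRPC4 calcium response.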 It counts as functional.
Test [5] has as its system Vero. Nature of the test: cells. The conditions noted are these: Chlorocebus sabaeus. It counts as functional.
Test [6] is described as follows: C. albicans growth with fluconazole, confirmation, fluorescence, retest (AID 2467). Type of test: functional, cell-based.
Test [7] deals with Streptococcus sp. 'group A'. The test is described as follows: growth inhibition of control SK(-) GAS strain, dose response, counter-screen for streptokinase expression inhibitor project, luminescence, kanamycin, BacTiterGlo, confirmation (AID 1900). It counts as functional, organism-based. (In general: Counterscreens check selectivity or assay interference.)
The test system of test [8] is Vero. Nature of the test: cells. Type of test: functional, cell-based. Particulars: Chlorocebus sabaeus.
A short description of test [9]: microbe, parasite or virus in culture. The conditions noted are these: Mycobacterium tuberculosis. It counts as functional.
A short description of test [10]: NIH-3T3 fibroblast cytotoxicity, dose response, cytotoxicity control, cell-based, fluorescence, Alamar Blue, secondary assay (AID 2327).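 Also: NIH-3T3 mouse fibroblasts cultured with fluconazole at 8 µg/mL.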 It counts as functional. A general note: Resazurin is reduced to fluorescent resorufin, in cell work by metabolically active cells.
The subject of a further test is Streptococcus. Nature of the test: Group A Streptococcus viability loss, dose response, counter-screen for streptokinase expression inhibitor project, luminescence, BacTiterGlo (AID 1915).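 Also: potency for reduction of bacterial viability or growth.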 Type of test: functional, organism-based.
Test [11] concerns the target Glucose-6-phosphate 1-dehydrogenase (Homo sapiens, UniProt P11413). The test is described as follows: human G6PD enzyme inhibitors, dose response, selectivity assay for P. falciparum G6PD inhibitor project, biochemical, fluorescence (AID 504792). Type of test: functional.
In test [12] the target is DNA dC->dU-editing enzyme APOBEC-3G (Homo sapiens, UniProt Q9HC16). The test is described as follows: Dose Response confirmation of small molecule APOBEC3G DNA Deaminase Inhibitors via a fluorescence-based single-stranded DNA deaminase assay. [Related pubchem assays (depositor defined):AID493012, AID493028]. It counts as functional.
For test [13], the target named is T3, Rac GTPase-activating protein 1 (Homo sapiens, UniProt Q9H0H5).
T3 sequence (Q9H0H5 whole entry): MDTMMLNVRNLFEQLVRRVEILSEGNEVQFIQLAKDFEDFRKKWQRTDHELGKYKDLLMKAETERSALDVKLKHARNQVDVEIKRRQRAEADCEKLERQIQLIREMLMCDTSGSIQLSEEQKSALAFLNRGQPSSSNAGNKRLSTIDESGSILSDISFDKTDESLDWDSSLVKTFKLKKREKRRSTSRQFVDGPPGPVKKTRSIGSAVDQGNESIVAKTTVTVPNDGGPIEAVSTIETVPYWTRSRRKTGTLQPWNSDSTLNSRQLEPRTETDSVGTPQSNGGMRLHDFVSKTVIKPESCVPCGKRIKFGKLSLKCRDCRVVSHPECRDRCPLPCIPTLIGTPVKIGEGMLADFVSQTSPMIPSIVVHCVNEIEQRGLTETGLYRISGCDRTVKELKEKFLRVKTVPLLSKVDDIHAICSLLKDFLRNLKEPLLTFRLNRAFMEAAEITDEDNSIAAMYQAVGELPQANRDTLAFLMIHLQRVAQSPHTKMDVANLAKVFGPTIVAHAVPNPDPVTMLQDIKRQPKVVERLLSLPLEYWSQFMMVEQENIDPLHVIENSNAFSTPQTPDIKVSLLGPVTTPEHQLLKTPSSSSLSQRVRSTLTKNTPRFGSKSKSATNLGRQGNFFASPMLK
The test is described as follows: MgcRacGAP GTPase-activating activity inhibitors, confirmation, biochemical, ADP Hunter fluorescence, primary and confirmatory (AID 624330). Type of test: functional.

Test [14] addresses FAD-linked sulfhydryl oxidase ALR (Homo sapiens, UniProt P55789). The test is described as follows: inhibitors of human ALR sulfhydryl oxidase, dose response, biochemical, H2O2 detection, luminescence, cherry-pick (AID 493248).
For test [15], the target named is T4, Nucleotide-binding oligomerization domain-containing protein 1 (Homo sapiens, UniProt Q9Y239).
T4 sequence (Q9Y239 whole entry): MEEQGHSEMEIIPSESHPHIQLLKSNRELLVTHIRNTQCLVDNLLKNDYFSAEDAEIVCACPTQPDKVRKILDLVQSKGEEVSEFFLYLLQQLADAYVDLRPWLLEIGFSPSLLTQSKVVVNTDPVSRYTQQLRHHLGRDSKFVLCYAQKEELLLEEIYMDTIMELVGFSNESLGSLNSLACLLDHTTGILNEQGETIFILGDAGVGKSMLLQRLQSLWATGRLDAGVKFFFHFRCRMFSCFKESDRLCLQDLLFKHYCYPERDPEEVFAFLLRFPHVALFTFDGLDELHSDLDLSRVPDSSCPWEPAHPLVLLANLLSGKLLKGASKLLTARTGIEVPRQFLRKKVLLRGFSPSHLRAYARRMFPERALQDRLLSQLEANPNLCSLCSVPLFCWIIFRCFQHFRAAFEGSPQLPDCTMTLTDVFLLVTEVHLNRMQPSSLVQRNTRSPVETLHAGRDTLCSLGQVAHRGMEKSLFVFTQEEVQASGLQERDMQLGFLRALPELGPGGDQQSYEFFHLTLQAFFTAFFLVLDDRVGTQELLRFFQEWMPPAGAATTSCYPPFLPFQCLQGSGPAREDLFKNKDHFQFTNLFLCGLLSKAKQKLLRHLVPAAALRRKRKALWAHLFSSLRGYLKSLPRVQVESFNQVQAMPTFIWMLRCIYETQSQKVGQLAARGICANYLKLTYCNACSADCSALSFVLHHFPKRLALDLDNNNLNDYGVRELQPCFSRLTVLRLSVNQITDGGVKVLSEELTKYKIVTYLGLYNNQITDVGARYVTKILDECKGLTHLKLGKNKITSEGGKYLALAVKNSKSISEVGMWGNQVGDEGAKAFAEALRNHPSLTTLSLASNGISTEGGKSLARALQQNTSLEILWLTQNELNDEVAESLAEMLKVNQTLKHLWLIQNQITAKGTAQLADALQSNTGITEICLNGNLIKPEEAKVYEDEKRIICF
Nature of the test: NOD1 signaling inhibitors, SAR follow-up, revised (AID 2333). It counts as functional.

A further test deals with Tumor necrosis factor (Homo sapiens, UniProt P01375). Nature of the test: TNFa-triggered NF-kB activation inhibitors, SAR follow-up, cell-based, revised (AID 2337). Type of test: functional.
The subject of a further test is HEK293. The test is described as follows: cells. The conditions noted are these: Homo sapiens.

Calls of active or inactive are those of the source.

Glyceraldehyde-3-phosphate dehydrogenase, sequence (P04406 whole entry): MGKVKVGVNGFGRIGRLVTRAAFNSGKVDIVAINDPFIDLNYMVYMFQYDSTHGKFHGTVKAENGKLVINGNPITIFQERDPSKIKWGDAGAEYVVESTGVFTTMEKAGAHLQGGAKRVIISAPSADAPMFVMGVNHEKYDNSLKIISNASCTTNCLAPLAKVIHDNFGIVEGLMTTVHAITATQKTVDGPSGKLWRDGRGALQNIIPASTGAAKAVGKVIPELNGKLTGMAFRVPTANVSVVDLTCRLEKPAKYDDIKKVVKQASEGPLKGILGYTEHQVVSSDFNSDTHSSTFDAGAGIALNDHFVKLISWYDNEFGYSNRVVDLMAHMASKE
DNA dC->dU-editing enzyme APOBEC-3G, sequence (Q9HC16 whole entry): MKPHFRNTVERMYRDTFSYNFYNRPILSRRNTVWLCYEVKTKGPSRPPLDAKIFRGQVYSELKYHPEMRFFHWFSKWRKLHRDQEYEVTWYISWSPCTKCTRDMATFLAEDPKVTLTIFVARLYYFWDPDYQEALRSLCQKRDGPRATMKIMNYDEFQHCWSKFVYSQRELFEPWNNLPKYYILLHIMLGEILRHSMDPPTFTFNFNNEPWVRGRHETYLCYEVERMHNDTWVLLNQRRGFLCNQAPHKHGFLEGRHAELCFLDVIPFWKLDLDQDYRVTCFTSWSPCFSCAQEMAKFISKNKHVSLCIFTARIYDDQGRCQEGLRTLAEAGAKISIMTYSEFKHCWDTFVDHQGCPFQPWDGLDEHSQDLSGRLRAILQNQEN
Tumor necrosis factor, sequence (P01375 whole entry): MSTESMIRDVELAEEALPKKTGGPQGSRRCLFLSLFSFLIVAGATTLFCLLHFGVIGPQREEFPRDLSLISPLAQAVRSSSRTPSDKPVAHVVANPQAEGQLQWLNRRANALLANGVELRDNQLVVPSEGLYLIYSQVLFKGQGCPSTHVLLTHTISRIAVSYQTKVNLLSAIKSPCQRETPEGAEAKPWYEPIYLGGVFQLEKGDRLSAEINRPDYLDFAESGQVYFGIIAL
FAD-linked sulfhydryl oxidase ALR, sequence (P55789 whole entry, the tested form may be a part): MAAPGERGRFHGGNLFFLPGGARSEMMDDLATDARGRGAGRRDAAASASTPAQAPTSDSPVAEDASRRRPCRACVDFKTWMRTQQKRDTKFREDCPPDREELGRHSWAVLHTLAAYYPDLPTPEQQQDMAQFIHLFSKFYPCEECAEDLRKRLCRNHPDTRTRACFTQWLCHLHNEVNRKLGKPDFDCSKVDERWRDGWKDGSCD
Glucose-6-phosphate 1-dehydrogenase, sequence (P11413 whole entry): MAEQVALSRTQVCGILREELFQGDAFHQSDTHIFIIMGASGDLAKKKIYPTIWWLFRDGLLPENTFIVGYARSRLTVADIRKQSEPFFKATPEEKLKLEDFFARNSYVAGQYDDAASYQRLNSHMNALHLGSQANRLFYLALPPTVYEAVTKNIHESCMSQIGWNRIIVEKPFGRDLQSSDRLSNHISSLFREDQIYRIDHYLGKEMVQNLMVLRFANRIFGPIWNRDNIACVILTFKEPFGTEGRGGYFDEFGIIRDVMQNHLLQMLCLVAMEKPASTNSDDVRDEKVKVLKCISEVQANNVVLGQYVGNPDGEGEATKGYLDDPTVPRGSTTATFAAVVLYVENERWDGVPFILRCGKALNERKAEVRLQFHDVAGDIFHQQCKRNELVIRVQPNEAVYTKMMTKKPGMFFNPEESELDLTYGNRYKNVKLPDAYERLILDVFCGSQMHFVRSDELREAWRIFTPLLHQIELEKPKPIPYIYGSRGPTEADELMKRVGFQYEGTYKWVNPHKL

For the compound `O=C(O)c1cc(-c2ccc3c(c2)OCCO3)n[nH]1`, the results for the IC50 in test [1] and in test [2] were 49.8 µM (active) and > 100 µM (not active), respectively.
Consider `O=c1c2ccccc2[nH]c(=S)n1Cc1cccnc1`, for which the EC50 was 2.66 µM (active) in test [3] and 3.35 µM (active) in [4].
Regarding `CC(C)(C)c1ccc(C(=O)NC(=S)NNC(=O)COc2ccccc2)cc1`, the CC50 with Vero [5] was > 25 µM (active); in test [9], 34.1 µM (active). Moreover, the concentration giving a half-maximal response (EC50) in test [6] was 1.58 µM (active); in test [7], 0.067 µM (active); in test [3], 5.96 µM (active); in [10], > 150 µM (inactive); in the test with Streptococcus it was 1.76 µM (active); in test [4], 6.68 µM (active). Further, the IC50 in the test with Vero [8] was 23 µM (active).
As to `COC(=O)[C@H](CCSC)NC(=O)c1cc2c3ccccc3nc-2c[nH]1`, the IC50 in [11] is > 80 µM (inactive); in [12], 59.6 µM (active).
As to `O=S(=O)(N=S1CC=CCN1S(=O)(=O)c1ccccc1)c1ccccc1` (configuration not stated), the values for the IC50 in [13] and in test [12] were 105 µM (active) and 2.32 µM (active), respectively. For the same compound, the AC50 in test [14] is 2.19 µM (active).
As for `COc1cccc(Cn2c(Oc3ccccc3)nc3c2c(=O)n(C)c(=O)n3C)c1`, in [4], the EC50 is 7.5 µM (active).
Turning to `CN(CC(=O)NC1CCCc2ccccc21)C1CCCCC1` (configuration not stated), the half-maximal effective concentration (EC50) in [4] was 13.3 µM (active).
Consider `COc1ccc(NC(=O)c2ccc(CN3CCc4ccccc43)cc2)cc1`, for which the IC50 (in test [15]; at Tumor necrosis factor; in the test with HEK293) was > 20 µM (inactive) throughout.
With `c1cnc(-c2cccnc2)nc1`, the IC50 in test [1] is > 100 µM (inactive); in test [2], > 100 µM (not active).
Regarding `CCn1cnc(-c2cccnc2)c1`, the IC50 is > 100 µM (inactive) in test [1] and > 100 µM (not active) in test [2].

One may read the IC50 as the concentration that gives 50% inhibition. As usually defined, the EC50 is the concentration giving half of the maximal effect. What is called AC50 is the concentration giving half of the maximal activity seen.
